Measurements: patent US12503436B2, “Compounds and compositions for treating conditions associated with STING activity” (NOVARTIS PHARMA AG, priority 2021, dated 2025)
pEC50: −log10 of the molar value.

The molecules below were run against STING (Homo sapiens, UniProt Q86WV6, G230A/H232R/R293Q/R71H) (assay: STING reporter assay in THP1-Dual KO-IFNAR2 cells (2′3′cGAMP stimulation, luciferase reporter)). Conditions: 15 μM 2′3′cGAMP stimulation, 24 h, read-out: Pharmaron, THP1_IFNAR2 STING 24 h Luci Normalized: GeoMean EC50.
Type: cell-based
How it was run: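 EC50 from secreted luciferase (QUANTI-Luc Plus luminescence of supernatant) after 24 h at 37 °C, 5% CO2. Cells: THP1-Dual KO-IFNAR2, treated with compound (0.0017-100 μM final) plus lipofected 2′3′cGAMP at 15 μM final.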

STING, sequence (Q86WV6 whole entry R71H/G230A/H232R/R293Q): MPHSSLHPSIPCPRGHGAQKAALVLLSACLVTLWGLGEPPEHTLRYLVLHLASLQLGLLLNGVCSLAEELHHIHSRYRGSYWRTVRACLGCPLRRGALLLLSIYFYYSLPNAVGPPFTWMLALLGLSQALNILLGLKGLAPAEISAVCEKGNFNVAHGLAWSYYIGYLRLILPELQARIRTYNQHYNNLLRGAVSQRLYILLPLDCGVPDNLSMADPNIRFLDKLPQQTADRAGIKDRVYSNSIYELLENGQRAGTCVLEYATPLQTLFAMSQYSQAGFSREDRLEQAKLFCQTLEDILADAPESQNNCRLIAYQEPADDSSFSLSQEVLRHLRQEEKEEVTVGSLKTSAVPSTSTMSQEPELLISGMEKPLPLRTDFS

Structure (SMILES) | pEC50
CC1OC(C)C1C(=O)Nc1c[nH]c2ccc(OCc3ccc(C(F)(F)F)cc3)cc12 (stereo not shown) [Compound 428, 2,4-dimethyl-N-(5-((4-(trifluoromethyl)benzyl)oxy)-1H-indol-3-yl)oxetane-3-carboxamide] | 6.00 to 6.70
CC1(C(=O)Nc2c[nH]c3ccc(O[C@H]4C[C@@H](c5ccc(C(F)(F)F)cc5)C4)cc23)COC1 [Compound 378, 3-methyl-N-(5-(cis-3-(4-(trifluoromethyl)phenyl)cyclobutoxy)-1H-indol-3-yl)oxetane-3-carboxamide] | 6.00 to 6.70
COCC1(C(=O)Nc2c[nH]c3ccc(O[C@H]4C[C@H](c5ccc(C(F)(F)F)cc5)C4)cc23)CC1 [Compound 468, l-(methoxymethyl)-N-{5-[(1R,3R)-3-[4-(trifluoromethyl)phenyl]cyclobutoxy]-1H-indol-3-yl}cyclopropane-1-carboxamide] | 6.00 to 6.70
O=C(Nc1c[nH]c2ccc(OCCc3ccc(C(F)(F)F)cc3)cc12)[C@H]1C[C@@H](O)C1 [Compound 190, (1S,3S)-3-hydroxy-N-(5-(4-(trifluoromethyl)phenethoxy)-1H-indol-3-yl)cyclobutanecarboxamide] | 6.00 to 6.70
O=C(Nc1c[nH]c2ccc(CCOc3ccc(C(F)(F)F)cc3)cc12)C1CC1(F)Cl (stereo not shown) [Compound 175, 2-chloro-2-fluoro-N-(5-(2-(4-(trifluoromethyl)phenoxy)ethyl)-1H-indol-3-yl)cyclopropane-1-carboxamide] | 6.00 to 6.70
CC(=O)Nc1c[nH]c2ccc(OCC3(c4ccc(C(F)(F)F)cc4)CC3)cc12 [Compound 289, N-(5-((1-(4-(trifluoromethyl)phenyl)cyclopropyl)methoxy)-1H-indol-3-yl)acetamide] | 5.30 to 6.00
CC(=O)N[C@H]1C[C@](C)(C(=O)Nc2c[nH]c3ccc(O[C@H]4C[C@@H](c5ccc(C(F)(F)F)cc5)C4)cc23)C1 [Compound 413, trans-3-acetamido-1-methyl-N-(5-(cis-3-(4-(trifluoromethyl)phenyl)cyclobutoxy)-1H-indol-3-yl)cyclobutane-1-carboxamide] | 5.30 to 6.00
O=C(Nc1c[nH]c2ccc(OCC[C@@H]3C[C@@H]4CN(CC(F)(F)F)C[C@@H]4C3)cc12)C1COC1 [Compound 383, N-(5-(2-((3aR,5r,6aS)-2-(2,2,2-trifluoroethyl)octahydrocyclopenta[c]pyrrol-5-yl)ethoxy)-1H-indol-3-yl)oxetane-3-carboxamide] | 6.00 to 6.70
COCC(=O)Nc1c[nH]c2ccc(OCCc3ccc(C(F)(F)F)cc3)cc12 [Compound 107, 2-methoxy-N-(5-(4-(trifluoromethyl)phenethoxy)-1H-indol-3-yl)acetamide] | 6.70 to 7.40
CC(=O)Nc1c[nH]c2ccc(CCOc3cnc4c(OC(F)(F)F)cccc4c3)cc12 [Compound 477, N-[5-(2-{[8-(trifluoromethoxy)quinolin-3-yl]oxy}ethyl)-1H-indol-3-yl]acetamide] | 5.30 to 6.00
O=C(Nc1c[nH]c2ccc(OCc3ccc(C(F)(F)F)cc3)cc12)C1CC1(F)Cl (stereo not shown) [Compound 318, 2-chloro-2-fluoro-N-(5-((4-(trifluoromethyl)benzyl)oxy)-1H-indol-3-yl)cyclopropane-1-carboxamide] | 6.00 to 6.70
CC1(C(=O)Nc2c[nH]c3ccc(O[C@H]4C[C@H](c5ccc(C(F)(F)F)cc5)C4)cc23)CCCO1 (stereo partly drawn) [Compound 487, 2-methyl-N-{5-[(1R,3R)-3-[4-(trifluoromethyl)phenyl]cyclobutoxy]-1H-indol-3-yl}oxolane-2-carboxamide] | 6.70 to 7.40
O=C(Nc1c[nH]c2ccc(O[C@H]3C[C@@H](c4ccc(C(F)(F)F)cc4)C3)cc12)C1CC1(F)F (stereo partly drawn) [Compound 364, 2,2-difluoro-N-(5-(cis-3-(4-(trifluoromethyl)phenyl)cyclobutoxy)-1H-indol-3-yl)cyclopropane-1-carboxamide] | 6.70 to 7.40
CC(=O)Nc1c[nH]c2ccc(OCC[C@@H]3[C@H]4CN(CC(F)(F)F)C[C@@H]34)cc12 [Compound 110, N-(5-(2-((1R,5S,6s)-3-(2,2,2-trifluoroethyl)-3-azabicyclo[3.1.0]hexan-6-yl)ethoxy)-1H-indol-3-yl)acetamide] | 6.00 to 6.70
C[C@]1(C(=O)Nc2c[nH]c3ccc(OCC[C@@H]4C[C@@H]5CN(CC(F)(F)F)C[C@@H]5C4)cc23)CC[C@@H](O)CC1 [Compound 505, (1s,4S)-4-hydroxy-1-methyl-N-(5-(2-((3aR,5r,6aS)-2-(2,2,2-trifluoroethyl)octahydrocyclopenta[c]pyrrol-5-yl)ethoxy)-1H-indol-3-yl)cyclohexane-1-carboxamide] | 6.00 to 6.70
CC1(C(=O)Nc2c[nH]c3ccc(O[C@H]4C[C@@H](c5ccc(C(F)(F)F)cc5)C4)cc23)CCC1 [Compound 360, 1-methyl-N-(5-(cis-3-(4-(trifluoromethyl)phenyl)cyclobutoxy)-1H-indol-3-yl)cyclobutane-1-carboxamide] | 6.00 to 6.70
O=C(Nc1c[nH]c2ccc(OCc3ccc(C(F)(F)F)cc3)cc12)C1CC(O)C1 (stereo not shown) [Compound 329, 3-hydroxy-N-(5-((4-(trifluoromethyl)benzyl)oxy)-1H-indol-3-yl)cyclobutane-1-carboxamide] | 6.00 to 6.70
N#CC1CCC1C(=O)Nc1c[nH]c2ccc(OCC[C@@H]3C[C@@H]4CN(CC(F)(F)F)C[C@@H]4C3)cc12 (stereo partly drawn) [Compound 304, 2-cyano-N-(5-(2-((3aR,5r,6aS)-2-(2,2,2-trifluoroethyl)octahydrocyclopenta[c]pyrrol-5-yl)ethoxy)-1H-indol-3-yl)cyclobutane-1-carboxamide] | 6.00 to 6.70
CC(=O)Nc1c[nH]c2ccc(COCC34CC(CN3CC(F)(F)F)C4)cc12 [Compound 492, N-(5-(((2-(2,2,2-trifluoroethyl)-2-azabicyclo[2.1.1]hexan-1-yl)methoxy)methyl)-1H-indol-3-yl)acetamide] | 4.00 to 5.30

Other lines, results leading:

pEC50 | Structure (SMILES)
6.70 to 7.40 | CO[C@H]1C[C@H](C(=O)Nc2c[nH]c3ccc(OCC[C@@H]4C[C@@H]5CN(CC(F)(F)F)C[C@@H]5C4)cc23)C1 [Compound 296, trans-3-methoxy-N-(5-(2-((3aR,5r,6aS)-2-(2,2,2-trifluoroethyl)octahydrocyclopenta[c]pyrrol-5-yl)ethoxy)-1H-indol-3-yl)cyclobutane-1-carboxamide]
5.30 to 6.00 | CC(=O)Nc1c[nH]c2ccc(OCC[C@@H]3C[C@@H]4CN(CC(F)F)C[C@@H]4C3)cc12 [Compound 313, N-(5-(2-((3aR,5r,6aS)-2-(2,2-difluoroethyl)octahydrocyclopenta[c]pyrrol-5-yl)ethoxy)-1H-indol-3-yl)acetamide]
6.70 to 7.40 | CC1(C(=O)Nc2c[nH]c3ccc(CCOc4ccc(C(F)(F)F)cc4)cc23)COC1 [Compound 165, 3-methyl-N-(5-(2-(4-(trifluoromethyl)phenoxy)ethyl)-1H-indol-3-yl)oxetane-3-carboxamide]
6.00 to 6.70 | CC(=O)Nc1c[nH]c2ccc(COCc3ccc(Cl)c(Cl)c3)cc12 [Compound 101, N-(5-(((3,4-dichlorobenzyl)oxy)methyl)-1H-indol-3-yl)acetamide]
6.00 to 6.70 | CC(C)(C)OC(=O)N1CC(C)(C(=O)Nc2c[nH]c3ccc(OCCc4ccc(C(F)(F)F)cc4)cc23)C1 [Compound 570, tert-butyl 3-methyl-3-((5-(4-(trifluoromethyl)phenethoxy)-1H-indol-3-yl)carbamoyl)azetidine-1-carboxylate]
6.70 to 7.40 | CC(=O)Nc1c[nH]c2ccc(CCOc3ccc(OC(F)(F)F)c(F)c3)cc12 [Compound 438, N-(5-{2-[3-fluoro-4-(trifluoromethoxy)phenoxy]ethyl}-1H-indol-3-yl)acetamide]
6.00 to 6.70 | O=C(Nc1c[nH]c2ccc(OCc3ccc(C(F)(F)F)cc3)cc12)C1CC(CO)C1 (stereo not shown) [Compound 153, 3-(hydroxymethyl)-N-(5-((4-(trifluoromethyl)benzyl)oxy)-1H-indol-3-yl)cyclobutane-1-carboxamide]
6.70 to 7.40 | C[C@]1(C(=O)Nc2c[nH]c3ccc(OCCc4ccc(C(F)(F)F)cc4)cc23)C[C@@H](O)C1 [Compound 445, (cis)-3-hydroxy-1-methyl-N-(5-(4-(trifluoromethyl)phenethoxy)-1H-indol-3-yl)cyclobutane-1-carboxamide]
6.00 to 6.70 | O=C(Nc1c[nH]c2ccc(CC(O)Cc3ccc(C(F)(F)F)cc3)cc12)C1CC1 (single isomer, unassigned) [Compound 200, N-(5-(2-hydroxy-3-(4-(trifluoromethyl)phenyl)propyl)-1H-indol-3-yl)cyclopropanecarboxamide]
6.00 to 6.70 | C[C@H]1C[C@H](C(=O)Nc2c[nH]c3ccc(OCc4ccc(C(F)(F)F)cc4)cc23)C1 [Compound 320, trans-3-methyl-N-(5-((4-(trifluoromethyl)benzyl)oxy)-1H-indol-3-yl)cyclobutane-1-carboxamide]
6.70 to 7.40 | O=C(Nc1c[nH]c2ccc(OCCc3ccc(C(F)(F)F)cc3)cc12)C1CC(Cl)C1 (stereo not shown) [Compound 217, 3-chloro-N-(5-(4-(trifluoromethyl)phenethoxy)-1H-indol-3-yl)cyclobutane-1-carboxamide]
6.00 to 6.70 | CC1(C(=O)Nc2c[nH]c3ccc(OCCc4ccc(C(F)(F)F)cc4)cc23)CCOC1 (stereo not shown) [Compound 189, 3-methyl-N-(5-(4-(trifluoromethyl)phenethoxy)-1H-indol-3-yl)tetrahydrofuran-3-carboxamide]
6.70 to 7.40 | CC(=O)Nc1c[nH]c2ccc(CCOc3ccc4c(c3)CCCC4)cc12 [Compound 490, N-(5-[2-(5,6,7,8-tetrahydronaphthalen-2-yloxy)ethyl]-1H-indol-3-yl}acetamide]
6.70 to 7.40 | CO[C@H]1C[C@@H](C(=O)Nc2c[nH]c3ccc(CCOc4ccc(C(F)(F)F)cc4)cc23)C1 [Compound 221, cis-3-methoxy-N-(5-(2-(4-(trifluoromethyl)phenoxy)ethyl)-1H-indol-3-yl)cyclobutane-1-carboxamide]
6.00 to 6.70 | O=C(Nc1c[nH]c2ccc(CCOc3ccc(C(F)(F)F)cc3)cc12)C1CC(Cl)C1 (stereo not shown) [Compound 177, 3-chloro-N-(5-(2-(4-(trifluoromethyl)phenoxy)ethyl)-1H-indol-3-yl)cyclobutane-1-carboxamide]
